# Patent US8921417B2, “Method of treating dyslipidemia using naturally occurring diterpene” (Council of Scientific & Industrial Research, priority 2008, dated 2014)
# Marks after values point to notes of the source that are not given here.
# Test system: high fat diet (HFD)-fed dyslipidemic hamsters
# Assay: Antidyslipidemic activity in high fat diet (HFD)-fed dyslipidemic hamster model
# Assay type: in vivo, golden Syrian hamsters
# Conditions: for GLY, percent change with respect to HFD-fed hamster group / HDL/TC, percent change with respect to HFD-fed hamster group / TC, percent change with respect to HFD-fed hamster group / TG, percent change with respect to HFD-fed hamster group / LDL, percent change with respect to HFD-fed hamster group: plasma; for antidyslipidemic activity (in words): different doses (5, 10, 25, 50, 100 mg/kg) of body weight
# Description: Male golden Syrian hamsters weighing 110-120 g were divided into hyperlipidemic and hyperlipidemic plus drug-treated groups. Each group consisted of eight animals. Hyperlipidemia was produced by feeding with a high fat diet (HFD). Hyperlipidemic hamsters had free access to the HFD and water ad lib during the entire period of the experiment. The test samples were given orally at the dose mentioned using water as a drug vehicle from day 4 to day 10 (7 days) in the HFD fed hamsters.
# Normal hamsters fed with the HFD and given the drug vehicle (water) only served as control animals. Body weight and diet intake of each animal group was recorded daily to check the effect of the drug on food intake and body weight of the animals. At the end of the experiment, i.e., on the 10th day, the blood of the non-fasted animals was withdrawn in EDTA coated tubes and the tubes were cooled to 4° C. for 15 min. The cold plasma was separated and biological analysis of the plasma was performed on the same day using commercially available enzymatic diagnostic kits for triglycerides (TG), total cholesterol (TC), high density lipoprotein (HDL), glycerol (GLY) and low density lipoprotein (LDL) using a Synchron CX-5 Clinical System, Beckmann Coulter Instrument. The data was analyzed for its significance on Prism Software.
# [1] = dose 25 mg/kg body weight, oral, 7 days
# [2] = dose 50 mg/kg body weight, oral, 7 days
# [3] = dose 100 mg/kg body weight, oral, 7 days
structure (smiles),measurement,setting,value
"CC(C)c1c(C(=O)Nc2ccccc2)c(-c2ccccc2)c(-c2ccc(F)cc2)n1CC[C@@H](O)C[C@@H](O)CC(=O)O [Atorvastatin, reference compound]",increase of HDL/TC,dose 10 mg/kg,35%
same,lowering of Gly,dose 10 mg/kg,52%
same,lowering of TC,dose 10 mg/kg,14%
same,lowering of TG,dose 10 mg/kg,63%
same,"GLY, percent change with respect to HFD-fed hamster group","dose 10 mg/kg p.o., 7 days",−52* %
same,"HDL/TC, percent change with respect to HFD-fed hamster group","dose 10 mg/kg p.o., 7 days",+35%
same,"TC, percent change with respect to HFD-fed hamster group","dose 10 mg/kg p.o., 7 days",−14%
same,"TG, percent change with respect to HFD-fed hamster group","dose 10 mg/kg p.o., 7 days",−63*** %
"CC1=CCC[C@@H]2[C@@](C)(CCC3=CC(=O)O[C@@H]3O)[C@H](C)CC[C@@]12C [Compound 1, 16α-hydroxycleroda-3,13(14)Z-dien-15,16-olide]",antidyslipidemic activity (in words),listed as compound having formula (1),significant antidyslipidemic activity
same,antidyslipidemic activity (in words),listed as pure isolated compound from the hexane extract,"significantly decreased serum TG, total cholesterol (TC), and glycerol (Gly), accompanied by increase in HDL-C/TC ratio"
same,"GLY, percent change with respect to HFD-fed hamster group","dose 5 mg/kg p.o., 7 days",−10%
same,"HDL/TC, percent change with respect to HFD-fed hamster group","dose 5 mg/kg p.o., 7 days",+12%
same,"TC, percent change with respect to HFD-fed hamster group","dose 5 mg/kg p.o., 7 days",−27* %
same,"TG, percent change with respect to HFD-fed hamster group","dose 5 mg/kg p.o., 7 days",−19%
same,"GLY, percent change with respect to HFD-fed hamster group","dose 10 mg/kg p.o., 7 days",−5%
same,"HDL/TC, percent change with respect to HFD-fed hamster group","dose 10 mg/kg p.o., 7 days",+12%
same,"TC, percent change with respect to HFD-fed hamster group","dose 10 mg/kg p.o., 7 days",−23* %
same,"TG, percent change with respect to HFD-fed hamster group","dose 10 mg/kg p.o., 7 days",−26*** %
same,increase of HDL/TC,[1],36%
same,lowering of Low density lipoproteins (LDL),[1],49%
same,lowering of glycerol (Gly),[1],51%
same,lowering of total cholesterol (TC),[1],46%
same,lowering of serum TG,"dose 25 mg/kg body weight, oral, 7 days, listed as compound of formula (1), 25 mg/kg",51%
same,lowering of serum TG,"dose 25 mg/kg body weight, oral, 7 days, listed as the compound, 25 mg/kg",up to 51%
same,"GLY, percent change with respect to HFD-fed hamster group","dose 25 mg/kg p.o., 7 days",−51*** %
same,"HDL/TC, percent change with respect to HFD-fed hamster group","dose 25 mg/kg p.o., 7 days",+36%
same,"LDL, percent change with respect to HFD-fed hamster group","dose 25 mg/kg p.o., 7 days",−49* %
same,"TC, percent change with respect to HFD-fed hamster group","dose 25 mg/kg p.o., 7 days",−46** %
same,"TG, percent change with respect to HFD-fed hamster group","dose 25 mg/kg p.o., 7 days",−51*** %
same,increase of HDL/TC,[2],54%
same,lowering of Low density lipoproteins (LDL),[2],41%
same,lowering of glycerol (Gly),[2],48%
same,lowering of serum TG,[2],46%
same,lowering of total cholesterol (TC),[2],55%
same,"GLY, percent change with respect to HFD-fed hamster group","dose 50 mg/kg p.o., 7 days",−48** %
same,"HDL/TC, percent change with respect to HFD-fed hamster group","dose 50 mg/kg p.o., 7 days",+54%
same,"LDL, percent change with respect to HFD-fed hamster group","dose 50 mg/kg p.o., 7 days",−41* %
same,"TC, percent change with respect to HFD-fed hamster group","dose 50 mg/kg p.o., 7 days",−55*** %
same,"TG, percent change with respect to HFD-fed hamster group","dose 50 mg/kg p.o., 7 days",−46** %
same,increase of HDL/TC,[3],46%
same,lowering of Low density lipoproteins (LDL),[3],65%
same,lowering of glycerol (Gly),[3],43%
same,lowering of serum TG,[3],43%
same,lowering of total cholesterol (TC),[3],54%
same,"GLY, percent change with respect to HFD-fed hamster group","dose 100 mg/kg p.o., 7 days",−43*** %
same,"HDL/TC, percent change with respect to HFD-fed hamster group","dose 100 mg/kg p.o., 7 days",+46%
same,"LDL, percent change with respect to HFD-fed hamster group","dose 100 mg/kg p.o., 7 days",−65*** %
same,"TC, percent change with respect to HFD-fed hamster group","dose 100 mg/kg p.o., 7 days",−54*** %
same,"TG, percent change with respect to HFD-fed hamster group","dose 100 mg/kg p.o., 7 days",−43** %
same,increase of HDL/TC ratio,over the dose range 5 to 100 mg/kg body weight,up to 54%
same,reduction of total cholesterol (TC),"over the dose range 5 to 100 mg/kg, listed as compound of formula (1)",up to 55%
"CC[C@H](C)C(=O)O[C@H]1C[C@@H](C)C=C2C=C[C@H](C)[C@H](CC[C@@H]3C[C@@H](O)CC(=O)O3)[C@H]21 [Lovastatin, reference compound]",increase of HDL/TC,[1],12%
same,lowering of glycerol (Gly),[1],35%
same,lowering of serum TG,[1],29%
same,lowering of total cholesterol (TC),[1],9%
same,"GLY, percent change with respect to HFD-fed hamster group","dose 25 mg/kg p.o., 7 days",−35%
same,"HDL/TC, percent change with respect to HFD-fed hamster group","dose 25 mg/kg p.o., 7 days",+12%
same,"TC, percent change with respect to HFD-fed hamster group","dose 25 mg/kg p.o., 7 days",−9%
same,"TG, percent change with respect to HFD-fed hamster group","dose 25 mg/kg p.o., 7 days",−29%
"CC(C)OC(=O)C(C)(C)Oc1ccc(C(=O)c2ccc(Cl)cc2)cc1 [fenofibrate, reference compound]",increase of HDL-C/TC,dose 108 mg/kg body weight,10%
same,lowering of Gly,dose 108 mg/kg body weight,36%
same,lowering of TC,dose 108 mg/kg body weight,18%
same,lowering of TG,dose 108 mg/kg body weight,42%
